Where “and” joins values, the source holds several entries; their conditions need not be identical. Identical values can stand only once. Calls of active or inactive are those of the source.
Assays:
Streptococcus = assay: GAS UMAA2166 growth inhibition – luminescence, BacTiterGlo, counter-screen for streptokinase expression inhibitor project, dose response (AID 1915); assay type: functional, organism-based;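 also: potency for reduction of bacterial viability or growth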
[1] = tested on: Streptococcus sp. 'group A'; assay: Streptococcus pyogenes SK(-)GAS viability under kanamycin – luminescence, BacTiterGlo, confirmation, counter-screen for streptokinase expression inhibitor project, dose response (AID 1900); assay type: functional, organism-based
Streptokinase A = molecular target: T1, Streptokinase A (Streptococcus pyogenes serotype M1, UniProt P10520); assay: viability-normalized secreted streptokinase activity reduction – plasminogen activation absorbance, OD405, dose response (AID 1914); assay type: functional, Streptococcus pyogenes M1 GAS;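 also: secreted streptokinase activity via plasminogen activation per viability signal from cell pellet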
T1 sequence (P10520 whole entry): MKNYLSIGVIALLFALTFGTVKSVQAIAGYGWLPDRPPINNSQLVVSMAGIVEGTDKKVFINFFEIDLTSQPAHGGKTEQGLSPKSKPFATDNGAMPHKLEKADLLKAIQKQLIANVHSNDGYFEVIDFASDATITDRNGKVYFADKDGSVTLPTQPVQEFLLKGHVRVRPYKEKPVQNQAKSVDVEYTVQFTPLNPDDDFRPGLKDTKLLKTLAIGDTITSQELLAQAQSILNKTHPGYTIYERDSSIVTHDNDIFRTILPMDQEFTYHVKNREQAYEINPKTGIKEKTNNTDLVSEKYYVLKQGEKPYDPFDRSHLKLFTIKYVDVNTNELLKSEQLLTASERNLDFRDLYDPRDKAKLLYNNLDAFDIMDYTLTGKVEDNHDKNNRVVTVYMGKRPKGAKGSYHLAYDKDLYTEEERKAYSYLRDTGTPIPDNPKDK

[2] = Trypanosoma cruzi growth suppression in host cells – NIH3T3 host cells, beta-gal luminescence, confirmation (AID 2044); assay type: functional, cell-based;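 also: intracellular parasites grown in NIH/3T3 mouse fibroblasts as host cells; luminescent beta-galactosidase reporter signal from transgenic T. cruzi replicating inside host cells; inhibitors lower the luminescence signal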
[3] = NIH3T3 cell viability loss – ATP luminescence, mouse fibroblasts, counter-screen, dose response (AID 2010); assay type: functional, cell-based;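 also: cells exposed to compound for about 90 hours before reading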
Cytochrome P450 3A4 = Cytochrome P450 3A4 (Homo sapiens, UniProt P08684);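 also: CYP3A4 tested as one member of a cytochrome P450 panel screen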
Sequence of Cytochrome P450 3A4 (P08684 whole entry): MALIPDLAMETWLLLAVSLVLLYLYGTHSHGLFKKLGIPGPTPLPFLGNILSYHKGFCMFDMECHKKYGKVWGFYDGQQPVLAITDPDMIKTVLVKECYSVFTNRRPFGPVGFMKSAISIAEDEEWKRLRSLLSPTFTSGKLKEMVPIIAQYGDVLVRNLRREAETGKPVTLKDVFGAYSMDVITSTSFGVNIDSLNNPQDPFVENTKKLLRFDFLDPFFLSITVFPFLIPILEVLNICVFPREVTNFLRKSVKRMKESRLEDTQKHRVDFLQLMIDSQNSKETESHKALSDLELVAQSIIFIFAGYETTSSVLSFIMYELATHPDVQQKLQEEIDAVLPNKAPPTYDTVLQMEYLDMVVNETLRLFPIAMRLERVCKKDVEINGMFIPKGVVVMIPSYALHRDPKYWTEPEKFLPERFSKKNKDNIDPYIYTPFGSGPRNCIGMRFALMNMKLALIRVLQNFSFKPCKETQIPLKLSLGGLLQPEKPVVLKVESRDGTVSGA

Cytochrome P450 2C19 = Cytochrome P450 2C19 (Homo sapiens, UniProt P33261); assay: Cytochrome panel assay with activity outcomes. Panel member name: p450-cyp2c19 Compounds with AC50 equal or less than 10 uM are considered active; assay type: functional
Sequence of Cytochrome P450 2C19 (P33261 whole entry): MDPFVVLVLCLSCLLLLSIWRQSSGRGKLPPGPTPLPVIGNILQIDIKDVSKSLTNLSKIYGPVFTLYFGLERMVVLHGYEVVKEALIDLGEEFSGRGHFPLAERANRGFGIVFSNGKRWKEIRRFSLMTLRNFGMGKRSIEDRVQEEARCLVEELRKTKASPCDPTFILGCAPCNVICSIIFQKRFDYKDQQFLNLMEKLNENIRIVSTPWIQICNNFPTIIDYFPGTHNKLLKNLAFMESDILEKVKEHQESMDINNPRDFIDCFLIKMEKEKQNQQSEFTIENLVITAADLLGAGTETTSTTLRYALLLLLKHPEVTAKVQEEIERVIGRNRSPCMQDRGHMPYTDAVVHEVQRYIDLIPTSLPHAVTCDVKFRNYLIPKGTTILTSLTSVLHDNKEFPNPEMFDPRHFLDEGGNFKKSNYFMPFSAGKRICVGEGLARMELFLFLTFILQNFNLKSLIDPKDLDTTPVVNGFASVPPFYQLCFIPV

Cytochrome P450 1A2 = molecular target: T2, Cytochrome P450 1A2 (Homo sapiens, UniProt P05177);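 also: PubChem cytochrome P450 panel assay, CYP1A2 panel member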
T2 sequence (P05177 whole entry): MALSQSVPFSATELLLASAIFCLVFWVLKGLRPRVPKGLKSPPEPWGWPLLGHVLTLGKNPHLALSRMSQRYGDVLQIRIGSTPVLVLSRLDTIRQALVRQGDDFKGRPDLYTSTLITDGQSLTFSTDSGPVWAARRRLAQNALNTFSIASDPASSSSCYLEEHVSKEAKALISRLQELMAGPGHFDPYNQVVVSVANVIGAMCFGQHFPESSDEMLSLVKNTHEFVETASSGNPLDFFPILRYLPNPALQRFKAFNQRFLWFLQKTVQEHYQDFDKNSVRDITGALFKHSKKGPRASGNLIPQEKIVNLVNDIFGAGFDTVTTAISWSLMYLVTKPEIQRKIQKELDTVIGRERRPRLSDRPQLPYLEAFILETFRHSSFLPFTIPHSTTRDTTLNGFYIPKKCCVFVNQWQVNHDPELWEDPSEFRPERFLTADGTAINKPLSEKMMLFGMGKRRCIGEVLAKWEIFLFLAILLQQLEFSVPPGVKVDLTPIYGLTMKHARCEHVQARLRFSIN

## Brc1ccc(Nc2ncnc3[nH]ncc23)cc1
Streptococcus
  EC50: 143 µM (active)
[1]
  EC50: 5.77 µM (active)
Streptokinase A
  EC50: > 150 µM (not active)

## O=C(NC1CCN(Cc2ccccc2)CC1)c1ccc2c(c1)nc(O)n2Cc1ccc(F)cc1
[2]
  EC50: 0.485 µM (active)
[3]
  EC50: > 60 µM (inconclusive)

## O=S(=O)(Cc1nnnn1-c1ccccc1)c1ccc(F)cc1
Streptococcus
  EC50: > 150 µM (not active)
[1]
  EC50: > 150 µM (not active)
Streptokinase A
  EC50: > 150 µM (not active)

## COc1cc(-c2nc(-c3ccc4c(c3)-c3ccccc3S4(=O)=O)c(-c3ccccc3)[nH]2)cc(OC)c1OC
[2]
  EC50: 1.81 µM (active)
[3]
  EC50: > 60 µM (not active)

## CCSC1=NC2(CCCCC2)Nc2sc3c(c21)CCCC3
[2]
  EC50: 2.23 µM (active)
[3]
  EC50: 20.6 µM (active)

## CC(=O)Nc1ccc(C2C(=O)c3ccccc3C2=O)cc1
Streptococcus
  EC50: > 150 µM (not active)
[1]
  EC50: 31.3 µM (active)
Streptokinase A
  EC50: > 150 µM (not active)

## Cc1ccc(C)c(N(CC(=O)NC2CCCC2)C(=O)c2cc3cc4cccc(C)c4nc3s2)c1
Cytochrome P450 3A4
  AC50: 2.51 µM (inconclusive)
Cytochrome P450 2C19; read-out: AC50
  AC50: 6.31 µM (inconclusive)

## COc1ccc(C(CCN)c2ccc3c(c2)OCO3)cc1 (stereo not given)
[2]
  EC50: 7.31 µM (active)
[3]
  EC50: > 60 µM (not active)

## O=C(CSc1nnc(NC(=O)c2ccccc2[N+](=O)[O-])s1)NC1CCCC1
Streptococcus
  EC50: > 150 µM (not active)
[1]
  EC50: > 150 µM (not active)
Streptokinase A
  EC50: > 150 µM (not active)

## Cc1ccc(NC(=O)C2CC2C)cc1S(=O)(=O)N1CCOCC1 (stereo not given)
[2]
  EC50: 1.91 µM (active)
[3]
  EC50: > 30 µM (not active)

## Oc1cc2c(c(Cl)c1O)CCNC[C@H]2c1ccccc1
Cytochrome P450 3A4
  AC50: 39.8 µM (inconclusive) and 12.6 µM (inconclusive)

## CN(C)Cc1ccccc1-c1cc(NCc2cccs2)ncn1
Cytochrome P450 3A4
  AC50: 10 µM (inconclusive)

## COc1ccccc1CCNC(=O)C(=O)c1cn(CC(=O)N2CCCC2)c2ccccc12
Streptococcus
  EC50: > 150 µM (not active)
[1]
  EC50: > 150 µM (not active)
Streptokinase A
  EC50: > 150 µM (not active)

## Cc1cc(C(F)F)n2nc(C(=O)Nc3cccnc3Cl)nc2n1
Cytochrome P450 2C19
  AC50: inconclusive

## Cc1oc2c(C)c(O)ccc2c(=O)c1-c1ccc2ccccc2n1
Cytochrome P450 3A4
  AC50: 7.94 µM (inconclusive)
Cytochrome P450 2C19; read-out: AC50
  AC50: 2.82 µM (inconclusive)

## Cc1[nH]c2ccccc2c1C(=O)COC(=O)c1ccc2c(=O)n3c(nc2c1)CCC3
Streptococcus
  EC50: 1.99 µM (active)
[1]
  EC50: 1.74 µM (active)

## COc1ccc(C2CC(c3ccc(Br)cc3)=NN2C(=O)CSC2=NN3CCCC(=O)N=C3S2)cc1 (stereo not given)
[2]
  EC50: 4.07 µM (active)
[3]
  EC50: > 60 µM (not active)

## COC(=O)[C@@]1(Cc2ccc(OC)cc2)[C@H]2c3cc(C(=O)N4CCCC4)n(Cc4ccc(OC)c(OC)c4)c3C[C@H]2CN1C(=O)c1ccccc1
Cytochrome P450 2C19; read-out: AC50
  AC50: 15.8 µM (inconclusive)

## COc1cc(C(=O)Nc2nc(-c3ccc(C)cc3)cs2)ccc1OCC(=O)N1CCOCC1
[2]
  EC50: 2.04 µM (active)
[3]
  EC50: > 60 µM (inconclusive)

## CC(C)NC(=O)N1CCC2(CC1)CCN(C(=O)c1ccncc1)CC2
Cytochrome P450 3A4
  AC50: 25.1 µM (inconclusive)

## CC(=O)NCCNc1ncnc2ccc(-c3ccccc3C#N)cc12
Cytochrome P450 3A4
  AC50: 25.1 µM (inconclusive)
Cytochrome P450 2C19; read-out: AC50
  AC50: 10 µM (inconclusive)

## CN(C)c1ncc2nc(CCc3ccccc3)c(=O)n(CCC#N)c2n1
Cytochrome P450 3A4
  AC50: 20 µM (inconclusive)

## CCOC(=O)N1CCN(C(=O)c2cc3n(n2)C(C(F)(F)F)CC(c2ccc4c(c2)OCO4)N3)CC1 (stereo not given)
Streptococcus
  EC50: > 150 µM (not active)
[1]
  EC50: 62.1 µM (active)
Streptokinase A
  EC50: > 150 µM (not active)

## CC(C)C[C@H](NC(=O)c1[nH]cnc1C(=O)Nc1ccccc1)C(=O)OC(C)(C)C
Streptococcus
  EC50: 7.19 µM (active)
[1]
  EC50: 3.21 µM (active)

## O=[N+]([O-])c1nn(-c2ccccc2)[n+]([O-])c1N1CCN(c2ccccc2F)CC1
[2]
  EC50: 0.458 µM (active)
[3]
  EC50: > 60 µM (not active)

## Cc1ccc(CNC(=O)COC(=O)c2cnccn2)cc1
Cytochrome P450 3A4
  AC50: 17.8 µM (inconclusive)
Cytochrome P450 2C19
  AC50: inconclusive

## CC(C)=CCC/C(C)=C/CO/N=C1/C[C@@H](O)[C@@H](O)[C@@H]2[C@@H]3C(=O)N(Cc4ccccc4)C(=O)[C@H]3CC[C@H]12
Cytochrome P450 2C19; read-out: AC50
  AC50: 0.0631 µM (inconclusive)

## CCc1ccc(CNc2ccc3c(c2)ncn3C(C)(C)C)cc1
Streptococcus
  EC50: > 150 µM (not active)
[1]
  EC50: 10.7 µM (active)
Streptokinase A
  EC50: > 150 µM (not active)

## CCOC(=O)c1c(NC(=O)CN2CCCCC2)sc2c1CCN(C(=O)OCC)C2
[2]
  EC50: 1.13 µM (active)
[3]
  EC50: > 60 µM (not active)

## Cc1cccc(NC(=O)NCc2ccc3c(c2)OCO3)c1
Streptococcus
  EC50: > 150 µM (not active)
[1]
  EC50: > 150 µM (not active)
Streptokinase A
  EC50: > 150 µM (not active)

## CC(C)Oc1cccc(C(=O)NC(=S)N2CCN(c3ccc(C(F)(F)F)cc3[N+](=O)[O-])CC2)c1
Cytochrome P450 3A4
  AC50: 14.1 µM (inconclusive)

## CNc1ncnc2ccc(-c3ccccc3C#N)cc12
Cytochrome P450 3A4
  AC50: 12.6 µM (inconclusive)

## O=C(Nc1ccc(N2CCCCC2)c(Cl)c1)c1ccc(N2CCOCC2)c([N+](=O)[O-])c1
[2]
  EC50: 1.06 µM (active)
[3]
  EC50: > 60 µM (not active)

## O=c1cnc2cnc(Oc3ccccc3)nc2n1Cc1ccc(F)cc1
Cytochrome P450 3A4
  AC50: 20 µM (inconclusive)

## COCC1CCCCN1C(=O)c1ccc2oc(CCCc3ccccc3)nc2c1 (stereo not given)
Streptococcus
  EC50: > 150 µM (not active)
[1]
  EC50: 98.8 µM (active)
Streptokinase A
  EC50: > 150 µM (not active)

## COc1ccc(C(=O)c2ccc(N3CCN(C4CC(=O)NC4=O)CC3)cc2)cc1F (stereo not given)
Streptococcus
  EC50: 33.3 µM (active)
[1]
  EC50: 2.99 µM (active)
Streptokinase A
  EC50: > 150 µM (not active)

## S=C(Nc1ccccc1Cl)N(Cc1ccccc1)Cc1cccnc1
[2]
  EC50: 0.992 µM (active)
[3]
  EC50: > 60 µM (not active)

## COc1ccc(CC(=O)NCC2CCCN(Cc3cc(OC)cc(OC)c3)C2)cc1 (stereo not given)
[2]
  EC50: 0.197 µM (active)
[3]
  EC50: > 30 µM (not active)

## COc1ccc(N(CC(=O)NCCSCc2cccc(Cl)c2)S(C)(=O)=O)cc1Cl
Streptococcus
  EC50: 79.6 µM (active)
[1]
  EC50: 13 µM (active)
Streptokinase A
  EC50: 23.2 µM (active)

## O=C(NC(=S)NNC(=O)c1cccs1)c1ccco1
Streptococcus
  EC50: 36.2 µM (active)
[1]
  EC50: 7.02 µM (active)
Streptokinase A
  EC50: > 150 µM (not active)

## CCCOc1ccc(-c2nn(-c3ccccc3)cc2/C=C2\SC(N)=NC2=O)cc1C
[2]
  EC50: 1.04 µM (active)
[3]
  EC50: > 60 µM (not active)

## COc1cc(-c2nc3ccccn3c2NCc2ccccc2)ccc1SC1CCCCC1
[2]
  EC50: 0.954 µM (active)
[3]
  EC50: > 60 µM (not active)

## Cc1nc(N2CCN(c3ccccc3O)CC2)c2c(-c3ccccc3)csc2n1
Streptococcus
  EC50: > 150 µM (not active)
[1]
  EC50: 15.1 µM (active)
Streptokinase A
  EC50: 34.4 µM (active)

## CC(CCc1ccccc1)NC(=O)/C=C/c1ccccc1 (stereo not given)
Cytochrome P450 3A4
  AC50: 25.1 µM (inconclusive)

## N#Cc1ccc(CN2CCC3(CC2)CCN(S(=O)(=O)c2ccccc2)CC3)cc1
Cytochrome P450 3A4
  AC50: 20 µM (inconclusive)

## CC(C)=NO[C@@H](C)CN1CCCCc2nc(C)c(C)cc21
Cytochrome P450 3A4
  AC50: 3.98 µM (inconclusive)

## COC(=O)c1ccc(Oc2nc3ccccc3n3c(C)nnc23)cc1
Streptococcus
  EC50: 61.2 µM (active)
[1]
  EC50: 3.82 µM (active)
Streptokinase A
  EC50: > 150 µM (not active)

## Cc1ccc(C(=O)NCc2ccc(N3CCN(C(=O)OC(C)(C)C)CC3)cc2)cc1
Cytochrome P450 2C19; read-out: AC50
  AC50: 14.1 µM (inconclusive)

## Cc1cc(C)cc(C(=O)N2CCC(CCC(=O)NC3CC3)CC2)c1
Streptococcus
  EC50: > 150 µM (not active)
[1]
  EC50: > 150 µM (not active)
Streptokinase A
  EC50: > 150 µM (not active)

## O=C(O)CCCc1ccc2ccccc2c1
Cytochrome P450 1A2
  AC50: 3.16 µM (inconclusive)

## CO/C(O)=C1\C(C)=NC2=C(C(=O)c3ccccc32)C1c1ccc(-c2ccc(C(=O)O)cc2)o1 (stereo not given)
Streptococcus
  EC50: 69 µM (active)
[1]
  EC50: 3.77 µM (active)
Streptokinase A
  EC50: > 150 µM (not active)

## COc1cc(COc2cc(N)c(Cl)cc2C(=O)CCC2CCN(CCNS(C)(=O)=O)CC2)cc(OC)c1
Cytochrome P450 2C19; read-out: AC50
  AC50: 15.8 µM (inconclusive)

## CC(C)=CCC/C(C)=C/CC/C(C)=C/CSc1ccccc1C(=O)O [SALIRASIB]
Cytochrome P450 3A4
  AC50: 31.6 µM (inconclusive)

Source: ChEMBL document CHEMBL1201862, “PubChem BioAssay data set” (2004)
